Measurements: ChEMBL document CHEMBL4507293 (2021)

Key:
[1] = target: Serine/threonine-protein kinase TBK1 (Homo sapiens) (UniProt Q9UHD2); details: Compound concentration 100.0 nM
[2] = target: Calcium/calmodulin-dependent protein kinase kinase 2 (Homo sapiens) (UniProt Q96RR4); details: Compound concentration 100.0 nM
[3] = target: Proto-oncogene tyrosine-protein kinase Src (Homo sapiens) (UniProt P12931); details: Compound concentration 100.0 nM
[4] = target: Vascular endothelial growth factor receptor 1 (Homo sapiens) (UniProt P17948); details: Compound concentration 100.0 nM
[5] = target: Cyclin-dependent kinase 16 (Homo sapiens) (UniProt Q00536); details: Compound concentration 100.0 nM
[6] = target: RAC-alpha serine/threonine-protein kinase (Homo sapiens) (UniProt P31749); details: Compound concentration 100.0 nM
[7] = target: 5-hydroxytryptamine receptor 1E (Homo sapiens) (UniProt P28566); details: Compound concentration 10.0 uM
[8] = tested on: Phosphatidylinositol 4,5-bisphosphate 3-kinase catalytic subunit alpha isoform (Homo sapiens), P42336 [E542K]; details: Compound concentration 100.0 nM
[9] = target: Phosphatidylinositol 4,5-bisphosphate 3-kinase catalytic subunit beta isoform (Homo sapiens) (UniProt P42338); details: Compound concentration 100.0 nM
[10] = target: Cyclin-dependent kinase 18 (Homo sapiens) (UniProt Q07002); details: Compound concentration 100.0 nM
[11] = target: Ribosomal protein S6 kinase alpha-5 (Homo sapiens) (UniProt O75582); details: Compound concentration 100.0 nM
Sequence of Ribosomal protein S6 kinase alpha-5 (Homo sapiens) (O75582 whole entry, looked up): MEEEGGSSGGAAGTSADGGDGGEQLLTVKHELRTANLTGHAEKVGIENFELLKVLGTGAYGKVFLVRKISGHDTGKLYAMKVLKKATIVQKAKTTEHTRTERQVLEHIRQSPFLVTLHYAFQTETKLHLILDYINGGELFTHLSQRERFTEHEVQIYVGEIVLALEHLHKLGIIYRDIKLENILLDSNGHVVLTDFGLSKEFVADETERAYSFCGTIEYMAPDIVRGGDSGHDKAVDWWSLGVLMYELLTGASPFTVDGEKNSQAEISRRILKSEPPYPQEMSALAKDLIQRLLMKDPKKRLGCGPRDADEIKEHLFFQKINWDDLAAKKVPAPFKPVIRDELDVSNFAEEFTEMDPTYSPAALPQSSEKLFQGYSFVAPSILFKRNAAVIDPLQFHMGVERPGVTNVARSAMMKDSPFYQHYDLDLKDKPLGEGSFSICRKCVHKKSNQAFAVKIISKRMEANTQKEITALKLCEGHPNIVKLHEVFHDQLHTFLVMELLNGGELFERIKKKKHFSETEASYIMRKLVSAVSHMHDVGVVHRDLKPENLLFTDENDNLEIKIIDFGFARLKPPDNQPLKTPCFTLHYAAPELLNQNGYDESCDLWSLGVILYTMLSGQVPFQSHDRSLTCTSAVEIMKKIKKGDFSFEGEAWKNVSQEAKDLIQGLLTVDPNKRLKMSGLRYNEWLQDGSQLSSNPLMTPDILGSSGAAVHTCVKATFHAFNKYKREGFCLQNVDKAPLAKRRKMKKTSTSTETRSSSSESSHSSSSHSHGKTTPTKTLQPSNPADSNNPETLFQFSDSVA

[12] = target: cGMP-dependent protein kinase 1 (Homo sapiens) (UniProt Q13976); details: Compound concentration 100.0 nM
[13] = target: T1, Muscarinic acetylcholine receptor M1 (Homo sapiens) (UniProt P11229); details: Compound concentration 10.0 uM
T1 sequence (whole entry): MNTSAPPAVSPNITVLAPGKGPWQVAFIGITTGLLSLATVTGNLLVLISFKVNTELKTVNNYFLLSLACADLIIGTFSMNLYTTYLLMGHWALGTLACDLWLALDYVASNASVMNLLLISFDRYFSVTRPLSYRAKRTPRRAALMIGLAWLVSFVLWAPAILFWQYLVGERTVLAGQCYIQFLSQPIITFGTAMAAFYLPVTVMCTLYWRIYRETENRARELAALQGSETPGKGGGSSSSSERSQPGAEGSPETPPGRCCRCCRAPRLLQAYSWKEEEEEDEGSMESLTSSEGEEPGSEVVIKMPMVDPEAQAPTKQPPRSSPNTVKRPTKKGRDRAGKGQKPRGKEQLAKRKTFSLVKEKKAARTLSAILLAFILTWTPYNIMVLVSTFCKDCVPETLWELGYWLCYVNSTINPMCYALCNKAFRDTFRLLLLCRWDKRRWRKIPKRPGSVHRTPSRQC

[14] = target: Mitogen-activated protein kinase 15 (Homo sapiens) (UniProt Q8TD08); details: Compound concentration 100.0 nM
[15] = target: BDNF/NT-3 growth factors receptor (Homo sapiens) (UniProt Q16620); details: Compound concentration 100.0 nM
Sequence of BDNF/NT-3 growth factors receptor (Homo sapiens) (Q16620 32-822 limits assumed): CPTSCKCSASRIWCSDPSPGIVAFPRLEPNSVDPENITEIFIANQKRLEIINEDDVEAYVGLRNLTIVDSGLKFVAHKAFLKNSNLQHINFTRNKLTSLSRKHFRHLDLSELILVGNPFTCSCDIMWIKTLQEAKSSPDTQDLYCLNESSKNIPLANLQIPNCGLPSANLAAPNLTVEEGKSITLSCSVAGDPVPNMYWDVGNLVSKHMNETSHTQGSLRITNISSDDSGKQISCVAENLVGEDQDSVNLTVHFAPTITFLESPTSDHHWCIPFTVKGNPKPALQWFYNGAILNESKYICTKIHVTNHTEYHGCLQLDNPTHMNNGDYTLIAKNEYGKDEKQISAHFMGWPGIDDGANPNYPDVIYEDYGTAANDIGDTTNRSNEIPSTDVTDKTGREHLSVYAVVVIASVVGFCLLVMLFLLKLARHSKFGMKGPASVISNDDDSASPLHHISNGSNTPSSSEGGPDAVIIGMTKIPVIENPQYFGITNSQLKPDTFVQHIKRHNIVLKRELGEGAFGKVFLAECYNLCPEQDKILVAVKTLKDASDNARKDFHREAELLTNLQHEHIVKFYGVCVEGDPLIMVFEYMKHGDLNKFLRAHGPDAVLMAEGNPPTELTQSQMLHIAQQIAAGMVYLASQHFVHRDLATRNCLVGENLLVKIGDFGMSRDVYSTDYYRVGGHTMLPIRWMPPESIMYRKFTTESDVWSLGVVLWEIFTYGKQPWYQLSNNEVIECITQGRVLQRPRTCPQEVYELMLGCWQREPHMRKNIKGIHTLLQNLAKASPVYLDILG

[16] = target: Myosin light chain kinase 2, skeletal/cardiac muscle (Homo sapiens) (UniProt Q9H1R3); details: Compound concentration 100.0 nM
[17] = target: Dual specificity protein kinase CLK2 (Homo sapiens) (UniProt P49760); details: Compound concentration 100.0 nM
[18] = target: Rhodopsin kinase GRK1 (Homo sapiens) (UniProt Q15835); details: Compound concentration 100.0 nM
[19] = target: Myosin light chain kinase family member 4 (Homo sapiens) (UniProt Q86YV6); details: Compound concentration 100.0 nM
[20] = target: Receptor-type tyrosine-protein kinase FLT3 (Homo sapiens) (UniProt P36888); details: Compound concentration 100.0 nM
[21] = tested on: Leucine-rich repeat serine/threonine-protein kinase 2 (Homo sapiens), Q5S007 [G2019S]; details: Compound concentration 100.0 nM
[22] = target: Serine/threonine-protein kinase BRSK2 (Homo sapiens) (UniProt Q8IWQ3); details: Compound concentration 100.0 nM
[23] = target: Insulin receptor (Homo sapiens) (UniProt P06213); details: Compound concentration 100.0 nM
[24] = target: Wee1-like protein kinase 2 (Homo sapiens) (UniProt P0C1S8); details: Compound concentration 100.0 nM
Sequence of Wee1-like protein kinase 2 (Homo sapiens) (P0C1S8 whole entry, looked up): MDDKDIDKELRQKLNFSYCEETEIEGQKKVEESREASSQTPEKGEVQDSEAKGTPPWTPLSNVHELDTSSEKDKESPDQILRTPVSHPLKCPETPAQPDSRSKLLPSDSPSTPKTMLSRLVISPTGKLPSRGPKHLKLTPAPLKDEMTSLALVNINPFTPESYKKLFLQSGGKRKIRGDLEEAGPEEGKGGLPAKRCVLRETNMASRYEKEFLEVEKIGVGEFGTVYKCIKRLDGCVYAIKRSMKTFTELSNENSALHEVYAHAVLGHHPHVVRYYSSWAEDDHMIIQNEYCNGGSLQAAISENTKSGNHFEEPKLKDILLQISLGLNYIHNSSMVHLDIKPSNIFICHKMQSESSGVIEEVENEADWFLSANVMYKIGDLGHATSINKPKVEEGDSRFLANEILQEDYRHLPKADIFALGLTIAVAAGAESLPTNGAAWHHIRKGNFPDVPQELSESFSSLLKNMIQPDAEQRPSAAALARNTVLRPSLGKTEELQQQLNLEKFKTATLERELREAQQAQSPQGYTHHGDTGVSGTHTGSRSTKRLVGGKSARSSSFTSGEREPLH

[25] = target: Death-associated protein kinase 1 (Homo sapiens) (UniProt P53355); details: Compound concentration 100.0 nM
[26] = target: Kappa-type opioid receptor (Homo sapiens) (UniProt P41145); details: Compound concentration 10.0 uM
[27] = target: Dual specificity mitogen-activated protein kinase kinase 7 (Homo sapiens) (UniProt O14733); details: Compound concentration 100.0 nM
[28] = target: Cyclin-dependent kinase 19 (Homo sapiens) (UniProt Q9BWU1); details: Compound concentration 100.0 nM
[29] = target: Serine/threonine-protein kinase SIK2 (Homo sapiens) (UniProt Q9H0K1); details: Compound concentration 100.0 nM
[30] = target: Receptor-interacting serine/threonine-protein kinase 2 (Homo sapiens) (UniProt O43353); details: Compound concentration 100.0 nM
[31] = tested on: Mast/stem cell growth factor receptor Kit (Homo sapiens), P10721 [D816H]; details: Compound concentration 100.0 nM
Sequence of Mast/stem cell growth factor receptor Kit (Homo sapiens), P10721 [D816H] (P10721 whole entry D816H): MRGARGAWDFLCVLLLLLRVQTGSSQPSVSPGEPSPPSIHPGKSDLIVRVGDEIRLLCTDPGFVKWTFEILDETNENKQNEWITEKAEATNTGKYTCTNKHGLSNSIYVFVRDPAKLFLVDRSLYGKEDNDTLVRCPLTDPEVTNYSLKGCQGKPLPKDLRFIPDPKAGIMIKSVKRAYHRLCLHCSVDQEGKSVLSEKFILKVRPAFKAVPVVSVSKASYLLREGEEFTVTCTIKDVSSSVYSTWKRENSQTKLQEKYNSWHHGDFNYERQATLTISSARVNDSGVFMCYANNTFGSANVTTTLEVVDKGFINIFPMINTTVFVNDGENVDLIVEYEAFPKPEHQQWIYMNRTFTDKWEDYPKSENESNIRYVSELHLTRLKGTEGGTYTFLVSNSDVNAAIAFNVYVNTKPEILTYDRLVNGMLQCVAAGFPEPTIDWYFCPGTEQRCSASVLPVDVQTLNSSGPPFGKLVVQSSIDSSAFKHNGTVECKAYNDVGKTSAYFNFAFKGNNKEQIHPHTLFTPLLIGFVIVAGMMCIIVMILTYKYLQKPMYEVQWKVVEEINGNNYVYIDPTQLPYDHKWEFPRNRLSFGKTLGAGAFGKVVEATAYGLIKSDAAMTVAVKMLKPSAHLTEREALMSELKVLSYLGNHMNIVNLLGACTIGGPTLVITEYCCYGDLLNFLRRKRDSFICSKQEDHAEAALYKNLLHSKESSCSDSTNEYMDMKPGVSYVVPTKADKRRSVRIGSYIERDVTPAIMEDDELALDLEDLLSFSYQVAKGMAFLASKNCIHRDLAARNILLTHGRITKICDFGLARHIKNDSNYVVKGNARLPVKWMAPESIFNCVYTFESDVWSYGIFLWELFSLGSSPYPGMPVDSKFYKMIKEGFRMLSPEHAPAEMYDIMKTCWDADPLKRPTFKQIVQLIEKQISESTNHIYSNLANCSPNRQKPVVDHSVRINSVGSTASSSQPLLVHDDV

[32] = target: Tyrosine-protein kinase TXK (Homo sapiens) (UniProt P42681); details: Compound concentration 100.0 nM
[33] = target: Mitogen-activated protein kinase kinase kinase kinase 4 (Homo sapiens) (UniProt O95819); details: Compound concentration 100.0 nM
[34] = target: Delta-type opioid receptor (Homo sapiens) (UniProt P41143); details: Compound concentration 10.0 uM
Sequence of Delta-type opioid receptor (Homo sapiens) (P41143 whole entry): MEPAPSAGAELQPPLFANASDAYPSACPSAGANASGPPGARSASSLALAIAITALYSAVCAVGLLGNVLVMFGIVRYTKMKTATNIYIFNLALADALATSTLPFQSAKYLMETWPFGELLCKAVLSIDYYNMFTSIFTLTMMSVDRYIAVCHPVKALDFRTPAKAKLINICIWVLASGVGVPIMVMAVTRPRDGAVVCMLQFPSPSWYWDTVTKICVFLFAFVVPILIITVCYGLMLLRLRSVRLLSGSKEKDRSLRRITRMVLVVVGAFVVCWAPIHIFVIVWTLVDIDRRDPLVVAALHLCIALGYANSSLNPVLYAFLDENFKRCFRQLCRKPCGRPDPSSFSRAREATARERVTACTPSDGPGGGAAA

[35] = target: Serine/threonine-protein kinase TNNI3K (Homo sapiens) (UniProt Q59H18); details: Compound concentration 100.0 nM
Sequence of Serine/threonine-protein kinase TNNI3K (Homo sapiens) (Q59H18 whole entry): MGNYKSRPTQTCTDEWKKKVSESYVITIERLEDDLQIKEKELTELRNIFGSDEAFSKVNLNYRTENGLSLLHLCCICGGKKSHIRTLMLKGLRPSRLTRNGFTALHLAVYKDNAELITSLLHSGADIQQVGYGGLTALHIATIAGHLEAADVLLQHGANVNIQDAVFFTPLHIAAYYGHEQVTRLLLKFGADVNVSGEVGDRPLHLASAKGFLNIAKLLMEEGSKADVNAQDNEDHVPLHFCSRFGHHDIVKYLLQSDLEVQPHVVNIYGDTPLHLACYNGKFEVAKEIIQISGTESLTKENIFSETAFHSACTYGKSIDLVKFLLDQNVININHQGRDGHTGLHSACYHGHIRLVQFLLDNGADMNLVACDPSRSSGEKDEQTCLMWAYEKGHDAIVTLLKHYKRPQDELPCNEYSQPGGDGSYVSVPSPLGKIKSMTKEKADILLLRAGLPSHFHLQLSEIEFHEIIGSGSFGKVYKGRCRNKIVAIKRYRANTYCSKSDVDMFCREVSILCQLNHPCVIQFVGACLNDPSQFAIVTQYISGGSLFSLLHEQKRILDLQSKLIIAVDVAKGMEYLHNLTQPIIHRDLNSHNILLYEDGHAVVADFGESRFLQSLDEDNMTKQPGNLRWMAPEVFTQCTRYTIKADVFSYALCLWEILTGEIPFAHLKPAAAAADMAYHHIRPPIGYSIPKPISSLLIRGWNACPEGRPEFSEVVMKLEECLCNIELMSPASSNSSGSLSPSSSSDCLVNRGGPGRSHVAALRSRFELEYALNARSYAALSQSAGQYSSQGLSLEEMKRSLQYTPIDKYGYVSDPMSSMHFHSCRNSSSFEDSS

[36] = target: 5-hydroxytryptamine receptor 1D (Homo sapiens) (UniProt P28221); details: Compound concentration 10.0 uM
[37] = target: GABA-A receptor; anion channel (Rattus norvegicus) (UniProt O09028+P15431+P18506+P18508+P19969+P20236+P23574+P23576+P28471+P28473+P30191+P62813+P63079+P63138+Q91ZM7+Q9ES14); details: Compound concentration 10.0 uM

Sequence of Serine/threonine-protein kinase TBK1 (Homo sapiens) (Q9UHD2 whole entry): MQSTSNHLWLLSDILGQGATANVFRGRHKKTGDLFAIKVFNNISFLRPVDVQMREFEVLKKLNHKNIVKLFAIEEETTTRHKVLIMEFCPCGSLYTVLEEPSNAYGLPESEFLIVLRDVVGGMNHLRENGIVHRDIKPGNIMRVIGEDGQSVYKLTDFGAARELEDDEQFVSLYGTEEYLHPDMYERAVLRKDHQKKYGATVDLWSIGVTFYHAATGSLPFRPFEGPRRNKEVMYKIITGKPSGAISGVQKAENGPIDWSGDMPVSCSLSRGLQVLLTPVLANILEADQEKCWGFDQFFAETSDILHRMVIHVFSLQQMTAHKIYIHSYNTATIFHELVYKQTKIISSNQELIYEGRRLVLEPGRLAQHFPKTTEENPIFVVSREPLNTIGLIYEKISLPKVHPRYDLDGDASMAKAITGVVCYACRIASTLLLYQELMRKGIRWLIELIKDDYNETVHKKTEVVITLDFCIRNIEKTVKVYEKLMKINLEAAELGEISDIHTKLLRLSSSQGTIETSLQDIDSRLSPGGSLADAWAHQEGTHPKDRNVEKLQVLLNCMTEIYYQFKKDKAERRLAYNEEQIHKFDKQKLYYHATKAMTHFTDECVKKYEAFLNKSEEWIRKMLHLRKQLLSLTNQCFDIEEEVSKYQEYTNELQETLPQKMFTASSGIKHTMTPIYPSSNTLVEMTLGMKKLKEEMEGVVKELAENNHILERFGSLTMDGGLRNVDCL

COCCOc1nc(-c2ccc(Cl)nc2)nc2c1CN(C(=O)c1ncn3ccccc13)CC2 [THPP-1]
inactive: residual activity [1] 68% | residual activity [2] 100% | residual activity [3] 95% | residual activity [4] 87% | residual activity [5] 100% | residual activity [6] 82% | inhibition [7] 6.95% | residual activity [8] 87% | residual activity [9] 100% | residual activity [10] 100% | residual activity [11] 100% | residual activity [12] 87% | inhibition [13] -4.03% | residual activity [14] 100% | residual activity [15] 100% | residual activity [16] 94% | residual activity [17] 100% | residual activity [18] 100% | residual activity [19] 100% | residual activity [20] 85% | residual activity [21] 100% | residual activity [22] 93% | residual activity [23] 76% | residual activity [24] 100% | residual activity [25] 100% | inhibition [26] -1.56% | residual activity [27] 95% | residual activity [28] 63% | residual activity [29] 100% | residual activity [30] 100% | residual activity [31] 68% | residual activity [32] 100% | residual activity [33] 73% | inhibition [34] 6.52% | residual activity [35] 100% | inhibition [36] 8.09% | inhibition [37] 24.9%

CC(C)CC(=O)N1CCc2nc(-c3ccc(Br)cc3)nc(N(C)Cc3ccccc3)c2C1 [THPP-1-NC]
inactive: residual activity [1] 75% | residual activity [2] 100% | residual activity [3] 100% | residual activity [4] 100% | residual activity [5] 100% | residual activity [6] 92% | inhibition [7] -5.76% | residual activity [8] 100% | residual activity [9] 100% | residual activity [10] 100% | residual activity [11] 96% | residual activity [12] 74% | inhibition [13] 4.18% | residual activity [14] 100% | residual activity [15] 100% | residual activity [16] 96% | residual activity [17] 100% | residual activity [18] 100% | residual activity [19] 100% | residual activity [20] 60% | residual activity [21] 100% | residual activity [22] 94% | residual activity [23] 84% | residual activity [24] 100% | residual activity [25] 100% | inhibition [26] 38% | residual activity [27] 79% | residual activity [28] 62% | residual activity [29] 100% | residual activity [30] 100% | residual activity [31] 71% | residual activity [32] 100% | residual activity [33] 84% | inhibition [34] 8.22% | residual activity [35] 100% | inhibition [36] 22.6% | inhibition [37] -3.36%
